Measurements: patent publication US12509452B2, “Substituted-isoxazoline-containing aromatic compound, preparation method therefor, herbicidal composition and use thereof” (QINGDAO KINGAGROOT CHEMICAL COMPOUND CO., LTD., priority 2019, dated 2025)

Legend:
Experiment in all cases: weeding effect in post-emergence stage
Format in all cases: in vivo
Conyza japonica = test system: Conyza japonica
How it was run: (§1)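 Read-out is fresh weight growth control rate, binned into levels 0-5 (Level 5 above 85%, Level 0 below 5%), recorded 3 weeks after spraying and averaged over three repeats. Plants were treated at the 2-3 leaf stage with 7.5-500 g a.i./ha plus methyl oleate synergist.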

Rorippa indica = test system: Rorippa indica
How it was run: as §1

Alopecurus japonicus = test system: Alopecurus japonicus
How it was run: as §1

Beckmannia syzigachne = test system: Beckmannia syzigachne
How it was run: as §1

| SMILES | weeding effect in post-emergence stage, Conyza japonica (activity level) (Conyza japonica; dose 15 g a.i./ha) | weeding effect in post-emergence stage, Rorippa indica (activity level) (Rorippa indica; dose 15 g a.i./ha) | weeding effect in post-emergence stage, Alopecurus japonicus (activity level) (Alopecurus japonicus; dose 15 g a.i./ha) | weeding effect in post-emergence stage, Beckmannia syzigachne (activity level) (Beckmannia syzigachne; dose 15 g a.i./ha) | weeding effect in post-emergence stage, Conyza japonica (activity level) (Conyza japonica; dose 125 g a.i./ha) | weeding effect in post-emergence stage, Rorippa indica (activity level) (Rorippa indica; dose 125 g a.i./ha) | weeding effect in post-emergence stage, Alopecurus japonicus (activity level) (Alopecurus japonicus; dose 125 g a.i./ha) | weeding effect in post-emergence stage, Beckmannia syzigachne (activity level) (Beckmannia syzigachne; dose 125 g a.i./ha) | weeding effect in post-emergence stage, Conyza japonica (activity level) (Conyza japonica; dose 7.5 g a.i./ha) | weeding effect in post-emergence stage, Rorippa indica (activity level) (Rorippa indica; dose 7.5 g a.i./ha) | weeding effect in post-emergence stage, Alopecurus japonicus (activity level) (Alopecurus japonicus; dose 7.5 g a.i./ha) | weeding effect in post-emergence stage, Beckmannia syzigachne (activity level) (Beckmannia syzigachne; dose 7.5 g a.i./ha) |
| --- | --- | --- | --- | --- | --- | --- | --- | --- | --- | --- | --- | --- |
| CCOC(=O)[C@]1(C(F)(F)F)CC(c2cc(-n3c(=O)n(C)c(=S)n(C)c3=O)c(F)cc2Cl)=NO1 [33(S)] | 5 (Level 5: growth control rate is above 85%) | 5 (Level 5: growth control rate is above 85%) | 5 (Level 5: growth control rate is above 85%) | 5 (Level 5: growth control rate is above 85%) |  |  |  |  |  |  |  |  |
| CCOC(=O)[C@@]1(CCF)CC(c2cc(-n3c(=O)n(C)c(=S)n(C)c3=O)c(F)cc2Cl)=NO1 [34(S)] |  |  |  |  | 5 (Level 5: growth control rate is above 85%) | 5 (Level 5: growth control rate is above 85%) | 5 (Level 5: growth control rate is above 85%) | 5 (Level 5: growth control rate is above 85%) |  |  |  |  |
| CCOC(=O)COC[C@]1(C(=O)OCC)CC(c2cc(-n3c(=O)n(C)c(=S)n(C)c3=O)c(F)cc2Cl)=NO1 [54(S)] | 5 (Level 5: growth control rate is above 85%) | 5 (Level 5: growth control rate is above 85%) | 5 (Level 5: growth control rate is above 85%) | 5 (Level 5: growth control rate is above 85%) |  |  |  |  |  |  |  |  |
| COC(=O)[C@@]1(c2ccccc2)CC(c2cc(-n3c(=O)n(C)c(=S)n(C)c3=O)c(F)cc2Cl)=NO1 [56(S)] | 5 (Level 5: growth control rate is above 85%) | 5 (Level 5: growth control rate is above 85%) | 5 (Level 5: growth control rate is above 85%) | 5 (Level 5: growth control rate is above 85%) |  |  |  |  |  |  |  |  |
| COC(=O)[C@]1(Cc2ccccc2)CC(c2cc(-n3c(=O)n(C)c(=S)n(C)c3=O)c(F)cc2Cl)=NO1 [59(S)] | 5 (Level 5: growth control rate is above 85%) | 5 (Level 5: growth control rate is above 85%) | 5 (Level 5: growth control rate is above 85%) | 5 (Level 5: growth control rate is above 85%) |  |  |  |  |  |  |  |  |
| CCOC(=O)[C@]1(CC)CC(c2cc(-n3c(=O)cc(C(F)(F)F)n(C)c3=O)c(F)cc2Cl)=NO1 [105(S)] |  |  |  |  | 5 (Level 5: growth control rate is above 85%) | 5 (Level 5: growth control rate is above 85%) | 5 (Level 5: growth control rate is above 85%) | 5 (Level 5: growth control rate is above 85%) |  |  |  |  |
| CCOC(=O)[C@@]1(C2CC2)CC(c2cc(-n3c(=O)cc(C(F)(F)F)n(C)c3=O)c(F)cc2Cl)=NO1 [119(S)] |  |  |  |  | 5 (Level 5: growth control rate is above 85%) | 5 (Level 5: growth control rate is above 85%) | 5 (Level 5: growth control rate is above 85%) | 5 (Level 5: growth control rate is above 85%) | 4 (Level 4: growth control rate is greater than or equal to 60% and less than 85%) | 4 (Level 4: growth control rate is greater than or equal to 60% and less than 85%) | 5 (Level 5: growth control rate is above 85%) | 5 (Level 5: growth control rate is above 85%) |
